Key:
[1] = system: BA/F3 (insSVD) cells; test: Ba/F3 cell survival assay (Cell Titer-Glo), EGFR-insSVD; type: cell-based; conditions: Mus musculus, BaF3, 48 h, without IL-3, with EGF
Description: 293T cells from ATCC were transfected with pBABEpuro expression constructs for WT EGFR or EGFR-insSVD, or EGFR-insSVD T790M, and pCL-Eco packaging vector using Fugene-6 transfection reagent from Promega. Plates were incubated at 37° C. for 48 h. Retrovirus was harvested by filtering the media supernatant through a 0.45 μm filter.
Ba/F3 cells purchased from DSMZ were grown in RPMI+10% FBS+10 ng/mL IL-3 and infected with filtered retroviral supernatant at a 1:2 dilution. Polybrene was added to a concentration of 8 μg/mL, plates were spun for 90 min, and incubated for 16 h at 37° C. 2 μg/mL puromycin was added to the infected cells 24 h after infection and cells were continually grown in the presence of puromycin and 10 ng/mL IL-3. Following stably expressing Ba/F3 cell lines were generated: Ba/F3-EGFR-WT, Ba/F3-EGFR-insSVD, Ba/F3-EGFR-insSVD T790M, (Ba/F3-vector-control).
For cell survival assays, Ba/F3 cells were grown to a density of 1-2 million cells per mL, spun down and resuspended in media without IL-3, and replated at a concentration of 200,000-500,000 cells per mL. The cells ectopically expressing WT EGFR, EGFR-insSVD, or EGFR-insSVD T790M were plated with 10 ng/mL Millipore Culture grade EGF. The cells ectopically expressing pBABEpuro empty vector were plated with 10 ng/mL IL-3.
2 days later, cells were plated in 50 μL in a 384 well plate at a concentration of 4000 cells per well for cells assayed in the absence of IL-3 and 2000 cells per well for cells assayed in the presence of IL-3. 100 nL of compound was added to each well using a 100 nL pin head, and plates were incubated at 37° C. for 48 h.
Cell viability was measured by adding 20 μL of Cell Titer-Glo Luminescent Cell Viability Reagent diluted 1:3 in PBS. Plates were sealed with Perkin Elmer Top-Seal, inverted several times to mix, and immediately centrifuged at 1000 rpm for 2 min. Plates were incubated in low light conditions for 8-10 min and luminescence was measured.

[2] = molecular target: mutEGFR (D770_N771insNPG, T790); test: mutEGFR (D770_N771insNPG, T790) kinase assay; type: biochemical, human
Chain of mutEGFR (D770_N771insNPG, T790) (P00533 with tags, fused parts or gaps INS770NPG limits assumed): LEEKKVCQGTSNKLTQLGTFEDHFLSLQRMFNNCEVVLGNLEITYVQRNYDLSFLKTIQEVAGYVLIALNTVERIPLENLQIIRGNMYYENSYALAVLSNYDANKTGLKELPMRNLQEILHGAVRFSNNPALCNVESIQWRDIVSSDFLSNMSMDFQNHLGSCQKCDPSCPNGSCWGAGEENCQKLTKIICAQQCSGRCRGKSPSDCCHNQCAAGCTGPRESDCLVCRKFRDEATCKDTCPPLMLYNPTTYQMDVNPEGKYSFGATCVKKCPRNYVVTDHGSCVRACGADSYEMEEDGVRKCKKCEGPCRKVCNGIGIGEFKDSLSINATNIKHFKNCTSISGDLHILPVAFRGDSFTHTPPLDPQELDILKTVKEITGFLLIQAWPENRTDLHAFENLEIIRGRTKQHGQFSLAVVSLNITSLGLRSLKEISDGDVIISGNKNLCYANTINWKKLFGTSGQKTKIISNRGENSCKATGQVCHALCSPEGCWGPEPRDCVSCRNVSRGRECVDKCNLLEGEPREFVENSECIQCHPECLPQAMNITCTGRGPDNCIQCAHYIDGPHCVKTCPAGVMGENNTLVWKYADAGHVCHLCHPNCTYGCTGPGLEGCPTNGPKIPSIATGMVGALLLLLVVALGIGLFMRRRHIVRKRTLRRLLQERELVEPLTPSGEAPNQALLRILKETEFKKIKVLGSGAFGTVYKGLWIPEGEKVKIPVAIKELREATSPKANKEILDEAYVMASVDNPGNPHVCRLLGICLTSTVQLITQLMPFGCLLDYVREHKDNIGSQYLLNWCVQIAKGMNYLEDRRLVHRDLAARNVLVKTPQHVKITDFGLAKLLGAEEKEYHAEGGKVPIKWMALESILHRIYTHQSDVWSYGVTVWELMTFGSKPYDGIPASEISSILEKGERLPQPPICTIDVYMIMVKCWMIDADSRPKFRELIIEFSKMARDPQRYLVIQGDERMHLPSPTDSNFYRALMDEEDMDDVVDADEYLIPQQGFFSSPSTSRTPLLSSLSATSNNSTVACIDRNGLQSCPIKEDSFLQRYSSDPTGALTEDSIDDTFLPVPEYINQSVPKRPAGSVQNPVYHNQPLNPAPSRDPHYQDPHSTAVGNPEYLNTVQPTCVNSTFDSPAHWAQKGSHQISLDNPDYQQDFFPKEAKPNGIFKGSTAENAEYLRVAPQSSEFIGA

[3] = molecular target: mutEGFR (D770_N771insSVD) (Homo sapiens, UniProt P00533, INS767SVD); test: Exon20-mutant-EGFR (D770_N771insSVD) TR-FRET kinase assay; type: biochemical; conditions: 2 mM ATP, 15 min preincubation
Chain of mutEGFR (D770_N771insSVD) (P00533 with tags, fused parts or gaps INS767SVD limits assumed): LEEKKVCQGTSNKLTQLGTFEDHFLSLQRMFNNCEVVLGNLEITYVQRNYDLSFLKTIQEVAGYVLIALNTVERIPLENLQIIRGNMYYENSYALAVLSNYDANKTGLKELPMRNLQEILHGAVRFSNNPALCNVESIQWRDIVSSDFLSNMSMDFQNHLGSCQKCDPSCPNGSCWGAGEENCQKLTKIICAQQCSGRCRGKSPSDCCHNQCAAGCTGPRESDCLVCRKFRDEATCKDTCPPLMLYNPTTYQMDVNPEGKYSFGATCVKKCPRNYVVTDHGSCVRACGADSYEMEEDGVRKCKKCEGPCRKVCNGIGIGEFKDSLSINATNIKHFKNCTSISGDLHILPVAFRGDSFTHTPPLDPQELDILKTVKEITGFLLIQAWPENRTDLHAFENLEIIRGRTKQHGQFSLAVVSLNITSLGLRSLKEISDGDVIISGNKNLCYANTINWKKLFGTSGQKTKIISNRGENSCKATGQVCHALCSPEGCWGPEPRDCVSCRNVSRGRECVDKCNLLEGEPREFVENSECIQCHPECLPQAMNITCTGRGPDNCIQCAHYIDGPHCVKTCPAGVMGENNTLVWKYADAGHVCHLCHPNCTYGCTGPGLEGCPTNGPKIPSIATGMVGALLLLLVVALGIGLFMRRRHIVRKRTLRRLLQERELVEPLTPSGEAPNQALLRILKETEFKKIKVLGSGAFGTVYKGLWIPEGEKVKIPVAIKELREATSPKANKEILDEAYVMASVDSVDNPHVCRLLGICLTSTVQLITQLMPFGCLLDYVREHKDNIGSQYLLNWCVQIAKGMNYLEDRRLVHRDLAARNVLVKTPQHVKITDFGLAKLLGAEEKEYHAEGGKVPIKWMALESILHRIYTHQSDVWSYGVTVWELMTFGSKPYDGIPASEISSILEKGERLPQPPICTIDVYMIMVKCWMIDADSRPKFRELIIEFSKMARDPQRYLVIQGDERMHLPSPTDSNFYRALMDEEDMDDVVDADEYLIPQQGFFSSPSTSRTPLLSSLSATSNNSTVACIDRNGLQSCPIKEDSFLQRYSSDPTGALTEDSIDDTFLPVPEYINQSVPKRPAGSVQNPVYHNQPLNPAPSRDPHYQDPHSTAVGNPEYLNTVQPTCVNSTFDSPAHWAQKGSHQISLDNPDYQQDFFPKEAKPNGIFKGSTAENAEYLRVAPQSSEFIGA
From the text: Inhibitory activity of compounds of the present invention against an Epidermal Growth Factor Receptor (EGFR) with an insertion of the amino acids sequence SVD between D770 and N771 (SEQ ID No. 5) was quantified employing the TR-FRET based kinase activity assay as described in the following paragraphs.
A recombinant fusion protein of N-terminal Glutathion-S-Transferase (GST) and a fragment of human EGFR variant (amino acids R669 to A1210 with insertion of the amino acids sequence SVD between D770 and N771 (SEQ ID No. 5) (“EGFR ins SVD”), expressed in Sf9 insect cells and purified via affinity chromatography using Glutathion Sepharose as described above, was used as a kinase. As substrate for the kinase reaction the biotinylated peptide biotin-Ahx-AEEEEYFELVAKKK (C-terminus in amide form) (SEQ ID No. 6) was used which can be purchased e.g. form the company Biosynthan GmbH (Berlin-Buch, Germany).
For the assay 50 nl of a 100-fold concentrated solution of the test compound in DMSO was pipetted into either a black low volume 384 well microtiter plate or a black 1536 well microtiter plate (both Greiner Bio-One, Frickenhausen, Germany), 2 μl of a solution of EGFR in aqueous assay buffer [50 mM Hepes pH 7.0, 10 mM MgCl2, 1 mM dithiothreitol, 0.5 mM EGTA, 0.3 mM activated sodium ortho-vanadate, 0.005% (w/v) bovine serum albumin, 0.005% (v/v) Tween-20] were added and the mixture was incubated for 15 min at 22° C. to allow pre binding of the test compounds to the enzyme before the start of the kinase reaction. […] The concentration of EGFR was adjusted depending of the activity of the enzyme lot and was chosen appropriate to have the assay in the linear range, typical concentration was 15 pg/μl. The reaction was stopped by the addition of 3 μl of a solution of HTRF detection reagents (83.3 nM streptavidine-XL665 [Cisbio Bioassays, Codolet, France] and 1.67 nM PT66-Tb-Cryptate, a terbium-cryptate labelled anti-phospho-tyrosine antibody from Cisbio Bioassays [instead of the PT66 Tb cryptate PT66 Eu Chelate from Perkin Elmer can also be used]) in an aqueous EDTA-solution (133.3 mM EDTA, 0.2% (w/v) bovine serum albumin in 50 mM HEPES pH 7.5).
The resulting mixture was incubated 1 h at 22° C. to allow the binding of the biotinylated phosphorylated peptide to the streptavidine-XL665 and the PT66-Tb-Cryptate. Subsequently, the amount of phosphorylated substrate was evaluated by measurement of the resonance energy transfer from the PT66-Tb-Cryptate to the streptavidine-XL665. Therefore, the fluorescence emissions at 620 nm and 665 nm after excitation at 337 nm were measured in a HTRF reader, e.g. a Pherastar (BMG Labtechnologies, Offenburg, Germany) or a Viewlux (Perkin-Elmer). The ratio of the emissions at 665 nm and at […] was taken as the measure for the amount of phosphorylated substrate. The data were normalised (enzyme reaction without inhibitor=0% inhibition, all other assay components but no enzyme=100% inhibition).

Row | Compound | IC50 [1] [µM] | IC50 [2] [µM] | IC50 [3] [µM]
1 | C=CC(=O)N1CCC[C@H]1COc1cnccc1-c1[nH]c2cccnc2c1-c1cccc(F)c1F [Example 86, 1-{(2S)-2-[({4-[3-(2,3-difluorophenyl)-1H-pyrrolo[3,2-b]pyridin-2-yl]pyridin-3-yl}oxy)methyl]pyrrolidin-1-yl}prop-2-en-1-one] | 0.067 | 0.00399 | 0.000911
2 | C=CC(=O)N1CCC[C@H]1COc1cnccc1-c1[nH]c2cccnc2c1-c1cc(C)ccc1F [Example 77, 1-{(2S)-2-[({4-[3-(2-fluoro-5-methylphenyl)-1H-pyrrolo[3,2-b]pyridin-2-yl]pyridin-3-yl}oxy)methyl]pyrrolidin-1-yl}prop-2-en-1-one] | 0.0274 | 0.00197 | 0.000853
3 | C=C(F)C(=O)N1CCC[C@H]1COc1cnccc1-c1[nH]c2cccnc2c1-c1ccccc1 [Example 91, 2-fluoro-1-[(2S)-2-({[4-(3-phenyl-1H-pyrrolo[3,2-b]pyridin-2-yl)pyridin-3-yl]oxy}methyl)pyrrolidin-1-yl]prop-2-en-1-one] | 1.47 | 0.769 | 0.0773
4 | C=CC(=O)N(C)CCOc1cnccc1-c1[nH]c2cccnc2c1-c1ccc2cc[nH]c2c1 [Example 16, N-[2-({4-[3-(1H-indol-6-yl)-1H-pyrrolo[3,2-b]pyridin-2-yl]pyridin-3-yl}oxy)ethyl]-N-methylprop-2-enamide] | 0.584 | 0.0323 | 0.00765
5 | C=CC(=O)N1CCC1(C)COc1cnccc1-c1[nH]c2cccnc2c1-c1cccc(C(F)(F)F)c1 (stereo not drawn) [Example 147, 1-[(2IRS)-2-methyl-2-{[(4-{3-[3-(trifluoromethyl)phenyl]-1H-pyrrolo[3,2-b]pyridin-2-yl}pyridin-3-yl)oxy]methyl}azetidin-1-yl]prop-2-en-1-one] | 6.53 | 3.68 | 0.699
6 | C=CS(=O)(=O)N(C)CCOc1cnccc1-c1[nH]c2cccnc2c1-c1cc(F)cc(F)c1 [Example 68, N-[2-({4-[3-(3,5-difluorophenyl)-1H-pyrrolo[3,2-b]pyridin-2-yl]pyridin-3-yl}oxy)ethyl]-N-methylethenesulfonamide] | 0.296 | 0.00876 | 0.00364
7 | C=CS(=O)(=O)N1CCC[C@H]1COc1cnccc1-c1[nH]c2c(C)ccnc2c1-c1cc(Cl)ccc1F [Example 138, 3-(5-chloro-2-fluorophenyl)-2-(3-{[(2S)-1-(ethenesulfonyl)pyrrolidin-2-yl]methoxy}pyridin-4-yl)-7-methyl-1H-pyrrolo[3,2-b]pyridine] | 0.027 | 0.00136 | 0.000582
8 | C=CC(=O)N1CCC(Oc2cnccc2-c2[nH]c3cccnc3c2-c2cc(C)ccc2F)C1 (racemic) [Example 124, 1-[(3RS)-3-({4-[3-(2-fluoro-5-methylphenyl)-1H-pyrrolo[3,2-b]pyridin-2-yl]pyridin-3-yl}oxy)pyrrolidin-1-yl]prop-2-en-1-one] | 0.904 | 0.121 | 0.0262
9 | C=CS(=O)(=O)N(C)CCOc1cnccc1-c1[nH]c2cccnc2c1-c1cccc(CC)c1 [Example 63, N-[2-({4-[3-(3-ethylphenyl)-1H-pyrrolo[3,2-b]pyridin-2-yl]pyridin-3-yl}oxy)ethyl]-N-methylethenesulfonamide] | 0.455 | 0.00588 | 0.00144
10 | C=CC(=O)N1CCC[C@H]1COc1cnccc1-c1[nH]c2c(C)ccnc2c1-c1cc(Cl)ccc1F [Example 137, 1-{(2S)-2-[({4-[3-(5-chloro-2-fluorophenyl)-7-methyl-1H-pyrrolo[3,2-b]pyridin-2-yl]pyridin-3-yl}oxy)methyl]pyrrolidin-1-yl}prop-2-en-1-one] | 0.0251 | 0.00155 | 0.000724
11 | CN(C)C/C=C\C(=O)N1CCC[C@H]1COc1cnccc1-c1[nH]c2cccnc2c1-c1ccccc1 [Example 98, (2Z)-4-(dimethylamino)-1-[(2S)-2-({[4-(3-phenyl-1H-pyrrolo[3,2-b]pyridin-2-yl)pyridin-3-yl]oxy}methyl)pyrrolidin-1-yl]but-2-en-1-one] | 0.747 | 0.0591 | 0.0146

— patent US20260035365A1, “1H-PYRROLO[3,2-B]PYRIDINE DERIVATIVES AS IRREVERSIBLE INHIBITORS OF MUTANT EGFR FOR THE TREATMENT OF CANCER” (Bayer Aktiengesellschaft, priority 2022, published 2026)
